Patent US20260103740A1, “METHOD AND APPARATUS FOR USING L[…] BEADS FOR ANTIMICROBIAL SUSCEPTIBILITY TESTING” (General Electric Company, priority 2022, published 2026)

Test system: E. coli
Settings: samples loaded by microfluidic manifold and manually (non-manifold control); antibiotic bead minus control bead Ct; FIG. 7
Method: The tetracycline-lyophilized reagent bead 68 was prepared such that each tetracycline-lyophilized reagent bead 68 when dissolved in 10 microliters of water yields a solution containing 0.1, 0.5, 2, and 10, micrograms of tetracycline/mL of water. To complete the trials, the embedded amplification bead 20 in the solid wax 28 was placed at the bottom of each of the amplification reaction vessels 24, and the antibiotic bead 22 was placed on top of the solid wax 28. […] Bacterial growth in the presence of the varying tetracycline concentrations mentioned above was conducted for a period of about three hours at an incubation temperature of 37° C. The temperature was then raised to above the melting point of the solid wax 28, and amplification was performed to assess the inhibitory effects of tetracycline on bacterial growth. The threshold value (Ct) of the amplification reactions were measured. […] The data was normalized by subtracting the mean Ct value for no-drug positive control from individual Ct values across the drug-containing incubations. […]
As shown in the graphical representation of lyophilized drug reagent bead testing 60, the tetracycline concentration 62 for both liquid tetracycline 66, the control group reagent, and tetracycline-lyophilized reagent beads 68 were measured in micrograms per milliliter (μg/mL), relative to the delta Ct values 64 produced by the concentration. […]

Structure (SMILES): CN(C)[C@@H]1C(O)=C(C(N)=O)C(=O)[C@@]2(O)C(O)=C3C(=O)c4c(O)cccc4[C@@](C)(O)[C@H]3C[C@@H]12.Cl [tetracycline, Tetracycline hydrochloride]
- growth inhibition (delta Ct values versus tetracycline concentration): demonstrated growth inhibition at the same concentrations
